In ChEMBL document CHEMBL4507302, “Data for DCP probe TP-020” (2021):

Assays:
[1] = molecular target: Atypical kinase COQ8A, mitochondrial (Homo sapiens) (UniProt Q8NI60); conditions: Compound concentration 1000.0 nM
[2] = molecular target: Cyclin-dependent kinase 3 (Homo sapiens) (UniProt Q00526); conditions: Compound concentration 1000.0 nM
[3] = molecular target: Dual specificity protein kinase CLK1 (Homo sapiens) (UniProt P49759); conditions: Compound concentration 1000.0 nM
[4] = molecular target: Macrophage colony-stimulating factor 1 receptor (Homo sapiens) (UniProt P07333); conditions: Compound concentration 1000.0 nM
[5] = molecular target: Casein kinase II subunit alpha' (Homo sapiens) (UniProt P19784); conditions: Compound concentration 1000.0 nM
[6] = molecular target: Ephrin type-A receptor 5 (Homo sapiens) (UniProt P54756); conditions: Compound concentration 1000.0 nM
[7] = molecular target: Ephrin type-B receptor 4 (Homo sapiens) (UniProt P54760); conditions: Compound concentration 1000.0 nM
[8] = molecular target: Mitogen-activated protein kinase 6 (Homo sapiens) (UniProt Q16659); conditions: Compound concentration 1000.0 nM
[9] = molecular target: Mitogen-activated protein kinase 7 (Homo sapiens) (UniProt Q13164); conditions: Compound concentration 1000.0 nM
[10] = molecular target: Tyrosine-protein kinase FRK (Homo sapiens) (UniProt P42685); conditions: Compound concentration 1000.0 nM
[11] = molecular target: Interleukin-1 receptor-associated kinase 1 (Homo sapiens) (UniProt P51617); conditions: Compound concentration 1000.0 nM
[12] = molecular target: Tyrosine-protein kinase JAK2 (Homo sapiens) (UniProt O60674); conditions: Compound concentration 1000.0 nM
[13] = tested on: Mast/stem cell growth factor receptor Kit (Homo sapiens), P10721 [V559D,V654A]; conditions: Compound concentration 1000.0 nM
[14] = molecular target: Serine/threonine-protein kinase STK11 (Homo sapiens) (UniProt Q15831); conditions: Compound concentration 1000.0 nM
[15] = molecular target: Leucine-rich repeat serine/threonine-protein kinase 2 (Homo sapiens) (UniProt Q5S007); conditions: Compound concentration 1000.0 nM
[16] = molecular target: Mitogen-activated protein kinase kinase kinase 13 (Homo sapiens) (UniProt O43283); conditions: Compound concentration 1000.0 nM
[17] = molecular target: Mitogen-activated protein kinase kinase kinase kinase 4 (Homo sapiens) (UniProt O95819); conditions: Compound concentration 1000.0 nM
[18] = molecular target: Microtubule-associated serine/threonine-protein kinase 1 (Homo sapiens) (UniProt Q9Y2H9); conditions: Compound concentration 1000.0 nM
[19] = molecular target: Dual specificity mitogen-activated protein kinase kinase 2 (Homo sapiens) (UniProt P36507); conditions: Compound concentration 1000.0 nM
[20] = molecular target: Myosin-IIIb (Homo sapiens) (UniProt Q8WXR4); conditions: Compound concentration 1000.0 nM
[21] = molecular target: Serine/threonine-protein kinase Nek2 (Homo sapiens) (UniProt P51955); conditions: Compound concentration 1000.0 nM
Chain of Serine/threonine-protein kinase Nek2 (Homo sapiens) (P51955 whole entry): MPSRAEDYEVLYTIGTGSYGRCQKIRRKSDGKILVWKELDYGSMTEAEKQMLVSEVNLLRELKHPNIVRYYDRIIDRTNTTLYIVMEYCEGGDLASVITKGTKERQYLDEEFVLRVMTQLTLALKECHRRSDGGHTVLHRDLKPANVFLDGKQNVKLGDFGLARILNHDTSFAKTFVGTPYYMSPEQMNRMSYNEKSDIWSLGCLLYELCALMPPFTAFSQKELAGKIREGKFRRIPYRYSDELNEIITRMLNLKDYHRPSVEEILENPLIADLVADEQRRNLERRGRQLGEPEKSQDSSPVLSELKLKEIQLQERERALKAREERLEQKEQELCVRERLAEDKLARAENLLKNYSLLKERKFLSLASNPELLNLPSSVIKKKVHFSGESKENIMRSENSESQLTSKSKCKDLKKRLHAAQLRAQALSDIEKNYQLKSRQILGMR

[22] = molecular target: Mitogen-activated protein kinase 12 (Homo sapiens) (UniProt P53778); conditions: Compound concentration 1000.0 nM
[23] = molecular target: Serine/threonine-protein kinase PAK 5 (Homo sapiens) (UniProt Q9P286); conditions: Compound concentration 1000.0 nM
[24] = tested on: Phosphatidylinositol 4,5-bisphosphate 3-kinase catalytic subunit alpha isoform (Homo sapiens), P42336 [C420R]; conditions: Compound concentration 1000.0 nM
Chain of Phosphatidylinositol 4,5-bisphosphate 3-kinase catalytic subunit alpha isoform (Homo sapiens), P42336 [C420R] (P42336 whole entry C420R, canonical isoform): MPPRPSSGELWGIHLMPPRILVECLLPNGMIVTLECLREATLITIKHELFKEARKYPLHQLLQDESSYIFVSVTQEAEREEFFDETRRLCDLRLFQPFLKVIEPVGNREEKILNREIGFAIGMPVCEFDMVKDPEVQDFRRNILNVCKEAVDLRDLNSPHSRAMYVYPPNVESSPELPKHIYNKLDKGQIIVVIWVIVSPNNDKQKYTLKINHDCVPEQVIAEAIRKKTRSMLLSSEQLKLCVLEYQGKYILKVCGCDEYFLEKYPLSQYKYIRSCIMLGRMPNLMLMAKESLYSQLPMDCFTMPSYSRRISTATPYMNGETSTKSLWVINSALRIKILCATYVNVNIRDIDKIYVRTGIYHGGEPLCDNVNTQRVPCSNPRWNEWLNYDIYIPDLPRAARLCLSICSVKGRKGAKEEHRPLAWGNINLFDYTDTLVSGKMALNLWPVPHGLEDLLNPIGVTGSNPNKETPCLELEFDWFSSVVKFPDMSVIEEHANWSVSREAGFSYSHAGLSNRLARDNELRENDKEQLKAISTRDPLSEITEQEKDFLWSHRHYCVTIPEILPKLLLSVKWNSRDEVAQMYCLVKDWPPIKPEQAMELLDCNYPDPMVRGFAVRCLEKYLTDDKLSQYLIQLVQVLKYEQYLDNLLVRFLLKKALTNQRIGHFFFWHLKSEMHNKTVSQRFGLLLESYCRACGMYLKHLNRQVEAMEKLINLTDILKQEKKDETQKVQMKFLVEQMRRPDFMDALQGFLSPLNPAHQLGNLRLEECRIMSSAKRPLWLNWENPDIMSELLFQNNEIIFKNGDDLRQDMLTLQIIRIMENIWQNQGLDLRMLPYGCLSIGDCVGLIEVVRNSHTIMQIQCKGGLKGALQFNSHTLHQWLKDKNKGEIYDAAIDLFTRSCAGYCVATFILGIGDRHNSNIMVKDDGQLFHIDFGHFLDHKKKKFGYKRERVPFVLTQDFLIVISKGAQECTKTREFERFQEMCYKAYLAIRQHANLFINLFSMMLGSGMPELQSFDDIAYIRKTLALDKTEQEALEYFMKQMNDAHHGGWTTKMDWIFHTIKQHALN

[25] = tested on: Phosphatidylinositol 4,5-bisphosphate 3-kinase catalytic subunit alpha isoform (Homo sapiens), P42336 [E542K]; conditions: Compound concentration 1000.0 nM
Chain of Phosphatidylinositol 4,5-bisphosphate 3-kinase catalytic subunit alpha isoform (Homo sapiens), P42336 [E542K] (P42336 whole entry E542K, canonical isoform): as the sequence (P42336 whole entry C420R, canonical isoform) above, with R420C, E542K counted along it

[26] = molecular target: Serine/threonine-protein kinase pim-2 (Homo sapiens) (UniProt Q9P1W9); conditions: Compound concentration 1000.0 nM
[27] = molecular target: Protein kinase C epsilon type (Homo sapiens) (UniProt Q02156); conditions: Compound concentration 1000.0 nM
[28] = molecular target: Serine/threonine-protein kinase D3 (Homo sapiens) (UniProt O94806); conditions: Compound concentration 1000.0 nM
[29] = molecular target: cGMP-dependent protein kinase 2 (Homo sapiens) (UniProt Q13237); conditions: Compound concentration 1000.0 nM
[30] = molecular target: Interferon-induced, double-stranded RNA-activated protein kinase (Homo sapiens) (UniProt P19525); conditions: Compound concentration 1000.0 nM
[31] = molecular target: RAF proto-oncogene serine/threonine-protein kinase (Homo sapiens) (UniProt P04049); conditions: Compound concentration 1000.0 nM
[32] = molecular target: Proto-oncogene tyrosine-protein kinase receptor Ret (Homo sapiens) (UniProt P07949); conditions: Compound concentration 1000.0 nM
[33] = molecular target: Ribosomal protein S6 kinase alpha-1 (Homo sapiens) (UniProt Q15418); conditions: Compound concentration 1000.0 nM
[34] = molecular target: Ribosomal protein S6 kinase alpha-2 (Homo sapiens) (UniProt Q15349); conditions: Compound concentration 1000.0 nM
[35] = molecular target: Ribosomal protein S6 kinase alpha-6 (Homo sapiens) (UniProt Q9UK32); conditions: Compound concentration 1000.0 nM
Chain of Ribosomal protein S6 kinase alpha-6 (Homo sapiens) (Q9UK32 whole entry): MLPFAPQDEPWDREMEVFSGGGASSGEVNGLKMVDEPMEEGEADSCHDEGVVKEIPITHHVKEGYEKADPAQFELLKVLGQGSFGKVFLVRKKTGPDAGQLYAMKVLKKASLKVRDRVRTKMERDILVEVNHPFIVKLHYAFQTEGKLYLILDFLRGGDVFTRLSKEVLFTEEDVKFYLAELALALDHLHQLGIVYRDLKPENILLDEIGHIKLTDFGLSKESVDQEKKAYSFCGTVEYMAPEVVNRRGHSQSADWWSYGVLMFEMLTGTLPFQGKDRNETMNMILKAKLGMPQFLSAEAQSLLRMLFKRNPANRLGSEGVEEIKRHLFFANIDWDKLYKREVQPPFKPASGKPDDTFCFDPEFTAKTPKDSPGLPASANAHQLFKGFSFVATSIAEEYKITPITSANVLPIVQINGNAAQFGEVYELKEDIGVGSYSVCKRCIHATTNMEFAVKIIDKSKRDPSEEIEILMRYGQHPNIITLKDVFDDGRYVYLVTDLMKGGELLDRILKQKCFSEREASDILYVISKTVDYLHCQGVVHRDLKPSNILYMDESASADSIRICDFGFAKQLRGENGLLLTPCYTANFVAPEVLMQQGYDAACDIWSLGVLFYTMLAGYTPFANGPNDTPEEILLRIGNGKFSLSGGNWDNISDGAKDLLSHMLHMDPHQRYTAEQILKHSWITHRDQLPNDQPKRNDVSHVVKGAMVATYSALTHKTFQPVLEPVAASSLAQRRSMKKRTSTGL

[36] = molecular target: Ribosomal protein S6 kinase alpha-6 (Homo sapiens) (UniProt Q9UK32); conditions: Compound concentration 1000.0 nM; remark: listed apart in the source
[37] = molecular target: STE20-like serine/threonine-protein kinase (Homo sapiens) (UniProt Q9H2G2); conditions: Compound concentration 1000.0 nM
Chain of STE20-like serine/threonine-protein kinase (Homo sapiens) (Q9H2G2 whole entry, looked up): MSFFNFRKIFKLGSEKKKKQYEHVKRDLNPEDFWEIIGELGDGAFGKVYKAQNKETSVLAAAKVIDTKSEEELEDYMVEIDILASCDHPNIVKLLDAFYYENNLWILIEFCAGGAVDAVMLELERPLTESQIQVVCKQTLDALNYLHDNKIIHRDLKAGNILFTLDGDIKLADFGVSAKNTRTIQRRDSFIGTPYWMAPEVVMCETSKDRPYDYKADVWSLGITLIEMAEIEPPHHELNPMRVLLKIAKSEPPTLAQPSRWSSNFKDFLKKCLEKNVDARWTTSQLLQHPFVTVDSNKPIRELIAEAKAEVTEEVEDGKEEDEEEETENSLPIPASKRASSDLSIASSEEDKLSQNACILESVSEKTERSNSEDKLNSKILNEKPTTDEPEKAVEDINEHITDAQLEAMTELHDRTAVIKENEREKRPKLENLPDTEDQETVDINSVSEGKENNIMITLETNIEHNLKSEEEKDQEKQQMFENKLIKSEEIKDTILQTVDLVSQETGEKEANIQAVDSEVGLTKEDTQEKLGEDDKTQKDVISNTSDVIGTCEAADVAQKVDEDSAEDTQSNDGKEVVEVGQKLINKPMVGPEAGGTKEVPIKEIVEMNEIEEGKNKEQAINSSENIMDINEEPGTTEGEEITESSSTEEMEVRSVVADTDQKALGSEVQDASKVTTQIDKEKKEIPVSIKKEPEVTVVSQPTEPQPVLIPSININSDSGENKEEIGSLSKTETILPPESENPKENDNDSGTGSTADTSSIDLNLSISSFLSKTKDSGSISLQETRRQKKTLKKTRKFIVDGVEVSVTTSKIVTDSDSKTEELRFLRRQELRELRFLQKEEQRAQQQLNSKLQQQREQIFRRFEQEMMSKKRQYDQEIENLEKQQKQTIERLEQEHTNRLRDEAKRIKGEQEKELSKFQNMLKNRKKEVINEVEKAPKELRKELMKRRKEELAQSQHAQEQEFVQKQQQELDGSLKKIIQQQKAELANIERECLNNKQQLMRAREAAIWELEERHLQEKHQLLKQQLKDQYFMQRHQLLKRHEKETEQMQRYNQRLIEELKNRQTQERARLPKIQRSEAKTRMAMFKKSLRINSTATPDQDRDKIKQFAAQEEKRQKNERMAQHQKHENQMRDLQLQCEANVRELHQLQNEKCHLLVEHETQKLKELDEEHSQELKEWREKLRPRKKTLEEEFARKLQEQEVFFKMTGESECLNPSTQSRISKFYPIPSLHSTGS

[38] = molecular target: SRSF protein kinase 3 (Homo sapiens) (UniProt Q9UPE1); conditions: Compound concentration 1000.0 nM
[39] = molecular target: Angiopoietin-1 receptor (Homo sapiens) (UniProt Q02763); conditions: Compound concentration 1000.0 nM
Chain of Angiopoietin-1 receptor (Homo sapiens) (Q02763 whole entry): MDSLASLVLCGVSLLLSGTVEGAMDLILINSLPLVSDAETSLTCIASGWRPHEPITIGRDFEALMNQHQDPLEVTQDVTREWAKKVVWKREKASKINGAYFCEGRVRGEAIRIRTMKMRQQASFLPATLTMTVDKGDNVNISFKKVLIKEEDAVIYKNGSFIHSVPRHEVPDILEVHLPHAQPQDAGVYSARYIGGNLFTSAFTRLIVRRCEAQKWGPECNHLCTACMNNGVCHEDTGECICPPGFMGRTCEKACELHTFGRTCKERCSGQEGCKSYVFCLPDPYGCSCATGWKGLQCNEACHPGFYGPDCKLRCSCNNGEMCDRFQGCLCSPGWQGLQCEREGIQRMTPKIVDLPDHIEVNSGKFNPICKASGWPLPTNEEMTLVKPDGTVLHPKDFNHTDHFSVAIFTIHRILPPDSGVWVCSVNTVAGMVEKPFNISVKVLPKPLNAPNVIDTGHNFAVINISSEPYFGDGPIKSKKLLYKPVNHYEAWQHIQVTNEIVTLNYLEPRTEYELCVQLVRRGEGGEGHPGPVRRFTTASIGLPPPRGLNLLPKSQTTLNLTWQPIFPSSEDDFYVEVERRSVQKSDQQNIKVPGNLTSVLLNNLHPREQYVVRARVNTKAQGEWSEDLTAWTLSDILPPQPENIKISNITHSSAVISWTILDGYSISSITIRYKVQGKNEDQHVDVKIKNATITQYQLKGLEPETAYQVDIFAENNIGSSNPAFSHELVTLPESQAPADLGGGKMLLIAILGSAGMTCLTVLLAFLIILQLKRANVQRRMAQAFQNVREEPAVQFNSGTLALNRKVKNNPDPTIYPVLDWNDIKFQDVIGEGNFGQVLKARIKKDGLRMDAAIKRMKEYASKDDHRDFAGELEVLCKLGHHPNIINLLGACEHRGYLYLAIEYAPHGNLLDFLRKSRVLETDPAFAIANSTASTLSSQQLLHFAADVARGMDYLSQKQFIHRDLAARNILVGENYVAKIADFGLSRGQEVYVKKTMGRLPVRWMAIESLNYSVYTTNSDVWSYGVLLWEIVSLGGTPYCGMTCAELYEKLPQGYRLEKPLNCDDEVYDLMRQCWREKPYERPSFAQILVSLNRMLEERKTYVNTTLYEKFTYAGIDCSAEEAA

[40] = molecular target: BDNF/NT-3 growth factors receptor (Homo sapiens) (UniProt Q16620); conditions: Compound concentration 1000.0 nM
[41] = molecular target: Transient receptor potential cation channel subfamily M member 6 (Homo sapiens) (UniProt Q9BX84); conditions: Compound concentration 1000.0 nM
[42] = molecular target: Testis-specific serine/threonine-protein kinase 1 (Homo sapiens) (UniProt Q9BXA7); conditions: Compound concentration 1000.0 nM
[43] = molecular target: Serine/threonine-protein kinase ULK1 (Homo sapiens) (UniProt O75385); conditions: Compound concentration 1000.0 nM
[44] = molecular target: Mitogen-activated protein kinase kinase kinase 20 (Homo sapiens) (UniProt Q9NYL2); conditions: Compound concentration 1000.0 nM
[45] = molecular target: 5-hydroxytryptamine receptor 1D (Homo sapiens, UniProt P28221); conditions: Compound concentration 10.0 uM

Chain of Cyclin-dependent kinase 3 (Homo sapiens) (Q00526 whole entry, looked up): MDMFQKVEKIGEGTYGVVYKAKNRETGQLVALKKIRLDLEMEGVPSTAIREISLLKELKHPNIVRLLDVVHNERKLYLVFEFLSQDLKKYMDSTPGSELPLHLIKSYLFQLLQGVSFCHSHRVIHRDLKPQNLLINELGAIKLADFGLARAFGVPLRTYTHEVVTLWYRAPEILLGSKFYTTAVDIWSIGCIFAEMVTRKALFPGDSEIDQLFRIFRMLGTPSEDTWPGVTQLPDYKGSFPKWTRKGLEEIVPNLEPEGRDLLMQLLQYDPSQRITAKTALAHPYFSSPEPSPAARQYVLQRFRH

Nc1cnc(N2CCc3cc(S(=O)(=O)Nc4c(F)cc(Cl)cc4F)cc(N4CCCC4=O)c32)nc1
residual activity [1]: 100% | residual activity [2]: 100% | residual activity [3]: 85% | residual activity [4]: 100% | residual activity [5]: 98% | residual activity [6]: 100% | residual activity [7]: 100% | residual activity [8]: 100% | residual activity [9]: 100% | residual activity [10]: 62% | residual activity [11]: 100% | residual activity [12]: 100% | residual activity [13]: 100% | residual activity [14]: 100% | residual activity [15]: 97% | residual activity [16]: 100% | residual activity [17]: 61% | residual activity [18]: 97% | residual activity [19]: 92% | residual activity [20]: 100% | residual activity [21]: 89% | residual activity [22]: 100% | residual activity [23]: 90% | residual activity [24]: 84% | residual activity [25]: 72% | residual activity [26]: 85% | residual activity [27]: 100% | residual activity [28]: 88% | residual activity [29]: 84% | residual activity [30]: 41% | residual activity [31]: 79% | residual activity [32]: 89% | residual activity [33]: 100% | residual activity [34]: 88% | residual activity [35]: 86% | residual activity [36]: 100% | residual activity [37]: 100% | residual activity [38]: 100% | residual activity [39]: 78% | residual activity [40]: 100% | residual activity [41]: 93% | residual activity [42]: 100% | residual activity [43]: 95% | residual activity [44]: 95% | inhibition [45]: 9.24%

Cn1nc(C(F)(F)F)cc1-c1cnc(N2CCc3cc(S(=O)(=O)Nc4c(F)cc(Cl)cc4F)cc(N4CCCC4=O)c32)nc1 [TP-020]
residual activity [1]: 100% | residual activity [2]: 91% | residual activity [3]: 87% | residual activity [4]: 91% | residual activity [5]: 84% | residual activity [6]: 94% | residual activity [7]: 99% | residual activity [8]: 100% | residual activity [9]: 100% | residual activity [10]: 83% | residual activity [11]: 72% | residual activity [12]: 82% | residual activity [13]: 89% | residual activity [14]: 100% | residual activity [15]: 79% | residual activity [16]: 79% | residual activity [17]: 83% | residual activity [18]: 100% | residual activity [19]: 84% | residual activity [20]: 100% | residual activity [21]: 100% | residual activity [22]: 83% | residual activity [23]: 100% | residual activity [24]: 76% | residual activity [25]: 85% | residual activity [26]: 100% | residual activity [27]: 96% | residual activity [28]: 100% | residual activity [29]: 90% | residual activity [30]: 100% | residual activity [31]: 100% | residual activity [32]: 87% | residual activity [33]: 96% | residual activity [34]: 100% | residual activity [35]: 85% | residual activity [36]: 84% | residual activity [37]: 100% | residual activity [38]: 100% | residual activity [39]: 99% | residual activity [40]: 75% | residual activity [41]: 79% | residual activity [42]: 100% | residual activity [43]: 79% | residual activity [44]: 98% | inhibition [45]: 55.3%
